Data on one compound can be found in article PMC6562610, “Inhibition of Hedgehog Signaling in Fibroblasts, Pancreatic, and Lung Tumor Cells by Oxy186, an Oxysterol Analogue with Drug-Like Properties” (Cells, 2019).

“Also recorded” adds a separate entry of the source. Read-outs that look alike come from different tables or passages of the source.

Series [1] can be described thus: Metabolic stability in human liver microsomes. It is filed as in vitro ADME.
Series [2] relates to Gli1 expression in A549 cells. The series can be described thus: Inhibition of Gli1 expression in A549 cells, Q-RT-PCR. It counts as cell-based, human. Particulars: 10 µM, 72 h. The source says: (§1) NIH3T3-E1 fibroblasts were obtained from ATCC (Manassas, VA) and cultured, as previously described. CAPAN-1 and PANC-1 human pancreatic cancer cells were obtained from ATCC and cultured in Dulbecco’s Modified Eagle Medium (DMEM) containing 10% heat-inactivated fetal bovine serum (FBS) (Hyclone Laboratories, Logan, UT, USA) and antibiotics, as previously described. The human lung cancer cell lines A549 and H2030 were obtained from ATCC and cultured in RPMI-1640 containing 10% FBS. The human hepatoma cell line HepG2 was obtained from ATCC and cultured in DMEM containing 10% FBS. Mouse embryonic fibroblasts (MEFs) from suppressor of fused (Sufu) null mice (Sufu^−/−) were provided by Dr. Philip Beachy of Stanford University and cultured in DMEM containing 10% FBS. Gant61, SB431542 and vismodegib (GDC0449) were obtained from Cayman Chemical, HPI-1 was obtained from Abcam. For experiments, cells were treated in a medium containing 5% FBS.
(§2) Total RNA was extracted with the RNeasy Plus Mini Kit from Qiagen, according to the manufacturer’s instructions. One microgram of RNA was reverse-transcribed using an iScript Reverse Transcription Supermix from Bio-Rad, to make single-stranded cDNA. The cDNAs were then mixed with Qi SYBR Green Supermix (Bio-Rad, Hercules, CA, USA) for quantitative RT-PCR assay using a Bio-Rad I-cycler IQ quantitative thermocycler. All PCR samples were prepared in triplicate wells in a 96-well plate. […] Fold changes in gene expression were calculated using the ΔΔCt method. […]
(§3) Figure 4 Inhibition of Gli and Shh expression in (a) PDAC (PANC-1) and (b,c) human lung cancer cells (A549 and H2030, respectively) by Oxy186. Cells were treated with the compounds as indicated in DMEM or RPMI 1640 containing 5% FBS for (a) 48 or (b,c) 72 hours, then RNA was extracted and analyzed by Q-RT-PCR for the expression of Gli1 and normalized to GAPDH expression. (d) CAPAN-1 cells were treated with the compounds, as indicated, in DMEM containing 5% FBS for 72 h, then RNA was extracted and analyzed by Q-RT-PCR for the expression of Shh and normalized to GAPDH expression. […]

Series [3] relates to Gli1 expression in H2030 cells. The experiment in a line: Inhibition of Gli1 expression in H2030 cells, Q-RT-PCR. Particulars: 10 µM, 72 h. It counts as cell-based, human.
Source text: as §1, §2, §3

A short description of series [4]: Pharmacokinetic study in mice, single oral dose. It is filed as in vivo, balb/c mice. Particulars: for Cmax: read-out: maximum serum concentration (Cmax). As for the experimental part: In an initial assessment of the drug-like properties of Oxy186, we performed a pharmacokinetic (PK) study in mice. Oxy186, formulated in 4% ethanol, 15% DMSO, and 81% corn oil, was administered to balb/c mice by oral gavage as a single dose of 50 mg/kg.
Figure 8 Drug-like properties of Oxy186. (a) A single dose of Oxy186 at 50 mg/kg, formulated in 4% ethanol/ 15% DMSO/ 81% corn oil, was administered to balb/c mice by oral gavage. Plasma samples were taken at 10 min, 30 min, 1, 2, 4, 6, 8, and 24 h, followed by LC/MS analysis of the plasma. (b) Evolution of Oxy186 from parent compound Oxy16 and their drug-like properties.

The subject of the next series is LXR target gene Abca1. The experiment in a line: Induction of LXR target gene Abca1 in NIH3T3 cells, Q-RT-PCR. It is filed as cell-based, mouse. As for the experimental part:
Total RNA was extracted with the RNeasy Plus Mini Kit from Qiagen, according to the manufacturer’s instructions. One microgram of RNA was reverse-transcribed using an iScript Reverse Transcription Supermix from Bio-Rad, to make single-stranded cDNA. The cDNAs were then mixed with Qi SYBR Green Supermix (Bio-Rad, Hercules, CA, USA) for quantitative RT-PCR assay using a Bio-Rad I-cycler IQ quantitative thermocycler. All PCR samples were prepared in triplicate wells in a 96-well plate. After 40 cycles of PCR, melt curves were examined in order to ensure primer specificity. Fold changes in gene expression were calculated using the ΔΔCt method. Primers used for mouse were as follows: Oaz1 (5’-CCACTGCTTCGCCAGAGAG-3’) and (5’-CCCGGACCCAGGTTACTA-3’), Gli1 (5’-[…]-3’ and 5’-[…]-3’), Ptch1 (5’-CCATCGGCGACAAGAACC-3’ and 5’-[…]-3’), Hip (5’-[…]-3’ and 5’-[…]-3’), and Abca1 (5’-[…]-3’ and 5’-[…]-3’). Primers used for human were as follows: SREBP1c (5’-CGCTCCTCCATCAATGACA-3’ and 5’-[…]-3’), GAPDH (5’-[…]-3’ and 5’-[…]-3’), SHH (5’-CGGAGCGAGGAAGGGAAAG-3’) and (5’-[…]-3’), and GLI1 (5’-GAAGCCGAGCCGAGTATC-3’ and 5’-[…]-3’).
Figure 7 Induction of LXR target gene expression by Oxy186 and LXR agonist TO901317 (TO). (a) NIH3T3 cells and (b) HepG2 cells were treated with DMEM containing 5% FBS in the presence or absence of TO (2 µM) or Oxy186 (10 µM). […] Data from a representative experiment are reported as the mean of triplicate determinations ± SD (** p < 0.01 vs. control).

The test system of series [5] is Smo mediated activation of Hh signaling in NIH3T3 cells. The series can be described thus: Inhibition of Hh signaling from allosteric activation of Smo by Oxy133, Q-RT-PCR. It is filed as cell-based, mouse. Particulars: 72 h. As for the experimental part:
Total RNA was extracted with the RNeasy Plus Mini Kit from Qiagen, according to the manufacturer’s instructions. One microgram of RNA was reverse-transcribed using an iScript Reverse Transcription Supermix from Bio-Rad, to make single-stranded cDNA. The cDNAs were then mixed with Qi SYBR Green Supermix (Bio-Rad, Hercules, CA, USA) for quantitative RT-PCR assay using a Bio-Rad I-cycler IQ quantitative thermocycler. All PCR samples were prepared in triplicate wells in a 96-well plate. After 40 cycles of PCR, melt curves were examined in order to ensure primer specificity. Fold changes in gene expression were calculated using the ΔΔCt method. Primers used for mouse were as follows: Oaz1 (5’-CCACTGCTTCGCCAGAGAG-3’) and (5’-CCCGGACCCAGGTTACTA-3’), Gli1 (5’-[…]-3’ and 5’-[…]-3’), Ptch1 (5’-CCATCGGCGACAAGAACC-3’ and 5’-[…]-3’), Hip (5’-[…]-3’ and 5’-[…]-3’), and Abca1 (5’-[…]-3’ and 5’-[…]-3’). […]
Figure 3 Inhibition of ligand-induced Hedgehog signaling. […] After 72 h, RNA was extracted and analyzed by Q-RT-PCR for the expression of Hh target genes Gli1 (a,b,d) and Ptch1 (c), and normalized to Oaz1 expression. […] Luciferase activity was measured and normalized to the Renilla luciferase activity. […]

Series [6] relates to Gli1 expression in PANC-1 cells. The series can be described thus: Inhibition of baseline Gli1 expression in PANC-1 cells, Q-RT-PCR. It is filed as cell-based, human. Particulars: 10 µM, 48 h.
Source text: as §1, §2, §3

Where [7] appears, read: Figure 8b drug-like properties summary.
The mark [8] stands for this setting: mouse, plasma, balb/c mice, 50 mg/kg, oral gavage, single dose.

`C[C@]12CC[C@H](O)C[C@@H]1CC[C@@H]1[C@@H]2CC[C@@]2(C)[C@H]1CC[C@@H]2[C@](C)(O)CCc1ccc(F)cc1` [Oxy186, (3S,5S,8R,9S,10S,13S,14S,17S)-17-((R)-4-(4-fluorophenyl)-2-hydroxybutan-2-yl)-10,13-dimethylhexadecahydro-1H-cyclopenta[a]phenanthren-3-ol]: in series [1], the “HLM, Half-Life” value is 0.75 h. Besides, the fraction remaining at 1 h in series [1] (60 min, read-out: HLM, % Remaining after 60 min) was 40%. For the same compound, the half-life is 0.717 h in series [1] (human, liver microsomes, read-out: HLM, Half-Life) and 4.5 h in series [4] (mouse, plasma, balb/c mice, 50 mg/kg, oral gavage, single dose, read-out: oral half-life (T1/2) (converted)). The “Inhibition of expression of Gli1” value in series [2] and in series [3] was “significantly inhibited” throughout. The “In vivo availability / stability (Figure 8b summary)” value in series [4] (setting [7]) is reported as “Orally available in mice”. Moreover, the Tolerability entry in series [4] (balb/c mice, 50 mg/kg, oral gavage, single dose) was “well tolerated; also recorded: no overt signs of toxicity”. Also, the Tmax in series [4] (setting [8]) amounted to 2 h. The AUC in series [4] (mouse, plasma, balb/c mice, 50 mg/kg, oral gavage, single dose, read-out: area under the curve (AUC)) was 10500 ng·h/mL; in series [4] (mouse, plasma, balb/c mice, 50 mg/kg, oral gavage, converted from ng/mL, read-out: area under the curve (AUC), molar) it was 23.7 µM·h. Moreover, the Cmax in series [4] (setting [8]) came out at 1490 ng/mL; in series [4] (mouse, plasma, balb/c mice, 50 mg/kg, oral gavage, converted with MW = 442.32) it was 3.4 µM. Further, the “LXR agonism (Figure 8b summary)” value in the series on LXR target gene Abca1 (setting [7]) is listed as “Weak LXR agonist”. Also, the “Induction of expression of LXR target gene Abca1” value in the series with LXR target gene Abca1 (NIH3T3-E1 cells, up to 10 µM) is on record as “only modestly induced”. Further, in series [5], the “Suppression of Hh signaling from allosteric activation of Smo by Oxy133” value is listed as “significantly suppressed”. In series [6], the “Inhibition of high baseline expression of Gli1” value is reported as “significantly inhibited”.

As a reminder, the share remaining is what is left of the initial amount, in per cent. The term Tmax denotes the time at which the peak concentration occurs. A word on the AUC: it is the area under the concentration-time curve, a measure of exposure.
